Assay results from patent publication US20230332252A1, “CELL-FREE BIOSENSORS WITH DNA STRAND DISPLACEMENT CIRCUITS AND POLYMERASE STRAND RECYCLING (PSR)” (Northwestern University, priority 2021, published 2023).

How the values were obtained:
SmtB = target: T1, SmtB (Synechococcus elongatus, UniProt P30340); assay: SmtB-regulated in vitro transcription of InvadeR with TMSD fluorescence output; assay type: biochemical; details: improved smtO-hairpin-InvadeR design, low background signal
T1 construct: 6xHis (C); made in house; host or cells: E. coli Rosetta 2(DE3)pLysS, pET-28c backbone (pJBL725)
T1 sequence (P30340 with tags, fused parts or gaps): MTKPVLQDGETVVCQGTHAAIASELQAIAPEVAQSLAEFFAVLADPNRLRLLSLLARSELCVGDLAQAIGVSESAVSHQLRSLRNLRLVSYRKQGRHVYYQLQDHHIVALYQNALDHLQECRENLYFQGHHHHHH
Description: (§1) In addition to TetR, we chose TtgR [44] and SmtB [45] as representative aTFs of the MarR family and SmtB/ArsR family, respectively. We placed the cognate operator sequence of each aTF 2-bp downstream of the T7 promoter and immediately upstream of the InvadeR sequences (FIG. 4a-c). When tetracycline was used to induce TetR-regulated reactions, we observed a strong and robust fluorescent signal visible in ˜10 minutes (FIG. 4d, FIG. 13a). […] We note that we observed a slight decrease in the induction speed from the TtgR-regulated reactions compared to that of the TetR-regulated reactions, likely due to the reduced ttgO DNA template concentration needed to accommodate TtgR's relatively weak binding affinity to its operator sequence.
We were immediately successful in adapting the system to TetR and TtgR (FIG. 4a, b). […]
(§2) Regulated IVT reactions additionally included a purified aTF at the indicated concentration and were equilibrated at 37° C. for ˜10 minutes. Immediately prior to plate reader measurements, 2 ng of T7 RNAP and, optionally, a ligand at the indicated concentration were added to the reaction. Reactions were then characterized on a plate reader as described in Plate reader quantification and micromolar equivalent fluorescein (MEF) standardization.

TetR = target: T2, TetR (Escherichia coli, UniProt P04483); assay: biochemical
T2 construct: made in house; host or cells: E. coli Rosetta 2(DE3)pLysS, pET-28c backbone (pJBL701)
Description: To test if this spacing remained important in the TMSD platform, we used TetR as our model aTF to determine the optimum spacing for efficient repression in the presence of TetR and efficient transcription in the absence of TetR [41]. We used the native sequence that follows the canonical T7 RNAP promoter as a spacer in 2-bp increments from 0 to 10-bp, immediately followed by the tetO sequence and InvadeR sequence (FIG. 3a). IVT reactions were set up using 50 nM DNA template with or without purified recombinant TetR protein in 100-fold excess of the DNA template. […]
Using the 2-bp spacer, we next determined whether TetR can be de-repressed with its cognate ligand, anhydrotetracycline (aTc) to allow transcription of InvadeR (FIG. 3c). […]
Homemade IVT reactions were set up by adding the following components listed at their final concentration: IVT buffer (40 mM Tris-HCl pH 8, 8 mM MgCl2, 10 mM DTT, 20 mM NaCl, and 2 mM spermidine), 11.4 mM NTPs pH 7.5, 0.3 U thermostable inorganic pyrophosphatase (#M0296S, New England Biolabs), transcription template, DNA gate(s) and MilliQ ultrapure H2O to a total volume of 20 μL. […] Immediately prior to plate reader measurements, 2 ng of T7 RNAP and, optionally, a ligand at the indicated concentration were added to the reaction.

TtgR = target: T3, TtgR (Pseudomonas putida, UniProt Q88N29); assay: TtgR-regulated in vitro transcription of InvadeR with TMSD fluorescence output; assay type: biochemical; details: TtgR-regulated reactions, with versus without ligand
T3 construct: made in house; host or cells: E. coli Rosetta 2(DE3)pLysS, pET-28c backbone (pJBL721)
Description: as §1, §2

T3 sequence (Q88N29 other isoform, or with tags, fused parts or gaps): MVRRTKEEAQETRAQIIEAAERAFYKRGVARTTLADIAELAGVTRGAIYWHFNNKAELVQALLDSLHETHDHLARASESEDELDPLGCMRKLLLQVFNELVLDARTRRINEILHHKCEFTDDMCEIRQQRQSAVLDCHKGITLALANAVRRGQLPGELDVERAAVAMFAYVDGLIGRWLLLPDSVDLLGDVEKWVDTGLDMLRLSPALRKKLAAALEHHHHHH

Compound: O=S(=O)([O-])[O-].[Zn+2] [ZnSO4]
- fluorescence activation by ligand (SmtB): clear activation

Compound: Cc1c2c(c(O)c3c(O)cccc13)C(=O)[C@]1(O)C(=O)C(C(N)=O)=C(O)[C@@H](N(C)C)[C@@H]1C2 [aTc, anhydrotetracycline]
- EC50 (TetR): 2.5 to 5 µM

Compound: O=C1C[C@@H](c2ccc(O)cc2)Oc2cc(O)cc(O)c21 [naringenin]
- fluorescence activation by ligand (TtgR): robust fluorescence activation only in the presence of the ligand
